Columns and labels:
Assay in all cases: Ambit kinase profiling, competition binding
PRKX = target: T1, PRKX (Homo sapiens, UniProt P51817); settings: compound concentration 10 uM, read-out: Percent Competition
T1 construct: purchased Ambit Biosciences (KINOMEscan)
Source text: (§1) Supplement pone.0044653.s004.xls, sheet "Compound 122" | column: Percent Competition

CAMKK1 = target: T2, CAMKK1 (Homo sapiens, UniProt Q8N5S9); settings: compound concentration 10 uM, read-out: Percent Competition
T2 construct: purchased Ambit Biosciences (KINOMEscan)
Source text: as §1

BMX = target: T3, BMX (Homo sapiens, UniProt P51813); settings: compound concentration 10 uM, read-out: Percent Competition
T3 construct: purchased Ambit Biosciences (KINOMEscan)
Source text: as §1

ABL1(H396P) = target: T4, ABL1(H396P) (Homo sapiens, UniProt P00519, H396P); settings: compound concentration 10 uM, read-out: Percent Competition
T4 construct: purchased Ambit Biosciences (KINOMEscan)
Source text: as §1

EPHA4 = target: T5, EPHA4 (Homo sapiens, UniProt P54764); settings: compound concentration 10 uM, read-out: Percent Competition
T5 construct: purchased Ambit Biosciences (KINOMEscan)
Source text: as §1

PIM3 = target: T6, PIM3 (Homo sapiens, UniProt Q86V86); settings: compound concentration 10 uM, read-out: Percent Competition
T6 construct: purchased Ambit Biosciences (KINOMEscan)
Source text: as §1

LKB1 = target: T7, LKB1 (Homo sapiens, UniProt Q15831); settings: compound concentration 10 uM, read-out: Percent Competition
T7 construct: purchased Ambit Biosciences (KINOMEscan)
Source text: as §1

AMPK-alpha1 = target: T8, AMPK-alpha1 (Homo sapiens, UniProt Q13131); settings: compound concentration 10 uM, read-out: Percent Competition
T8 construct: purchased Ambit Biosciences (KINOMEscan)
Source text: as §1

GCN2(Kin.Dom.2,S808G) = target: T9, GCN2(Kin.Dom.2,S808G) (Homo sapiens, UniProt Q9P2K8, S808G); settings: compound concentration 10 uM, read-out: Percent Competition
T9 construct: GCN2(Kin.Dom.2,S808G); purchased Ambit Biosciences (KINOMEscan)
Source text: as §1

EPHA7 = target: T10, EPHA7 (Homo sapiens, UniProt Q15375); settings: compound concentration 10 uM, read-out: Percent Competition
T10 construct: purchased Ambit Biosciences (KINOMEscan)
Source text: as §1

[1] = target: T11, RPS6KA4(Kin.Dom.1-N-terminal) (Homo sapiens, UniProt O75676); settings: compound concentration 10 uM, read-out: Percent Competition
T11 construct: RPS6KA4(Kin.Dom.1-N-terminal); purchased Ambit Biosciences (KINOMEscan)
Source text: as §1

SIK2 = target: T12, SIK2 (Homo sapiens, UniProt Q9H0K1); settings: compound concentration 10 uM, read-out: Percent Competition
T12 construct: purchased Ambit Biosciences (KINOMEscan)
Source text: as §1

MARK4 = target: T13, MARK4 (Homo sapiens, UniProt Q96L34); settings: compound concentration 10 uM
T13 construct: purchased Ambit Biosciences (KINOMEscan)
Source text: as §1

AAK1 = target: T14, AAK1 (Homo sapiens, UniProt Q2M2I8); settings: compound concentration 10 uM, read-out: Percent Competition
T14 construct: purchased Ambit Biosciences (KINOMEscan)
Source text: as §1

TRKB = target: T15, TRKB (Homo sapiens, UniProt Q16620); settings: compound concentration 10 uM, read-out: Percent Competition
T15 construct: purchased Ambit Biosciences (KINOMEscan)
Source text: as §1

MELK = target: T16, MELK (Homo sapiens, UniProt Q14680); settings: compound concentration 10 uM, read-out: Percent Competition
T16 construct: purchased Ambit Biosciences (KINOMEscan)
Source text: as §1

ULK1 = target: T17, ULK1 (Homo sapiens, UniProt O75385); settings: compound concentration 10 uM
T17 construct: purchased Ambit Biosciences (KINOMEscan)
Source text: as §1

TYRO3 = target: T18, TYRO3 (Homo sapiens, UniProt Q06418); settings: compound concentration 10 uM, read-out: Percent Competition
T18 construct: purchased Ambit Biosciences (KINOMEscan)
Source text: as §1

TRKC = target: T19, TRKC (Homo sapiens, UniProt Q16288); settings: compound concentration 10 uM, read-out: Percent Competition
T19 construct: purchased Ambit Biosciences (KINOMEscan)
Source text: as §1

TIE2 = target: T20, TIE2 (Homo sapiens, UniProt Q02763); settings: compound concentration 10 uM, read-out: Percent Competition
T20 construct: purchased Ambit Biosciences (KINOMEscan)
Source text: as §1

MST1 = target: T21, MST1 (Homo sapiens, UniProt Q13043); settings: compound concentration 10 uM
T21 construct: purchased Ambit Biosciences (KINOMEscan)
Source text: as §1

INSRR = target: T22, INSRR (Homo sapiens, UniProt P14616); settings: compound concentration 10 uM, read-out: Percent Competition
T22 construct: purchased Ambit Biosciences (KINOMEscan)
Source text: as §1

FLT3(K663Q) = target: T23, FLT3(K663Q) (Homo sapiens, UniProt P36888, K663Q); settings: compound concentration 10 uM, read-out: Percent Competition
T23 construct: purchased Ambit Biosciences (KINOMEscan)
Source text: as §1

FGFR3 = target: T24, FGFR3 (Homo sapiens, UniProt P22607); settings: compound concentration 10 uM, read-out: Percent Competition
T24 construct: purchased Ambit Biosciences (KINOMEscan)
Source text: as §1

PRKG2 = target: T25, PRKG2 (Homo sapiens, UniProt Q13237); settings: compound concentration 10 uM, read-out: Percent Competition
T25 construct: purchased Ambit Biosciences (KINOMEscan)
Source text: as §1

WEE2 = target: T26, WEE2 (Homo sapiens, UniProt P0C1S8); settings: compound concentration 10 uM, read-out: Percent Competition
T26 construct: purchased Ambit Biosciences (KINOMEscan)
Source text: as §1

PKN2 = target: T27, PKN2 (Homo sapiens, UniProt Q16513); settings: compound concentration 10 uM, read-out: Percent Competition
T27 construct: purchased Ambit Biosciences (KINOMEscan)
Source text: as §1

MAP3K4 = target: T28, MAP3K4 (Homo sapiens, UniProt Q9Y6R4); settings: compound concentration 10 uM, read-out: Percent Competition
T28 construct: purchased Ambit Biosciences (KINOMEscan)
Source text: as §1

RIOK2 = target: T29, RIOK2 (Homo sapiens, UniProt Q9BVS4); settings: compound concentration 10 uM, read-out: Percent Competition
T29 construct: purchased Ambit Biosciences (KINOMEscan)
Source text: as §1

AKT2 = target: T30, AKT2 (Homo sapiens, UniProt P31751); settings: compound concentration 10 uM, read-out: Percent Competition
T30 construct: purchased Ambit Biosciences (KINOMEscan)
Source text: as §1

FER = target: T31, FER (Homo sapiens, UniProt P16591); settings: compound concentration 10 uM, read-out: Percent Competition
T31 construct: purchased Ambit Biosciences (KINOMEscan)
Source text: as §1

HIPK1 = target: T32, HIPK1 (Homo sapiens, UniProt Q86Z02); settings: compound concentration 10 uM, read-out: Percent Competition
T32 construct: purchased Ambit Biosciences (KINOMEscan)
Source text: as §1

MLK1 = target: T33, MLK1 (Homo sapiens, UniProt P80192); settings: compound concentration 10 uM, read-out: Percent Competition
T33 construct: purchased Ambit Biosciences (KINOMEscan)
Source text: as §1

NDR2 = target: T34, NDR2 (Homo sapiens, UniProt Q9Y2H1); settings: compound concentration 10 uM, read-out: Percent Competition
T34 construct: purchased Ambit Biosciences (KINOMEscan)
Source text: as §1

MAPKAPK2 = target: T35, MAPKAPK2 (Homo sapiens, UniProt P49137); settings: compound concentration 10 uM, read-out: Percent Competition
T35 construct: purchased Ambit Biosciences (KINOMEscan)
Source text: as §1

[2] = target: T36, RPS6KA5(Kin.Dom.2-C-terminal) (Homo sapiens, UniProt O75582); settings: compound concentration 10 uM, read-out: Percent Competition
T36 construct: RPS6KA5(Kin.Dom.2-C-terminal); purchased Ambit Biosciences (KINOMEscan)
Source text: as §1

TAK1 = target: T37, TAK1 (Homo sapiens, UniProt O43318); settings: compound concentration 10 uM, read-out: Percent Competition
T37 construct: purchased Ambit Biosciences (KINOMEscan)
Source text: as §1

LYN = target: T38, LYN (Homo sapiens, UniProt P07948); settings: compound concentration 10 uM, read-out: Percent Competition
T38 construct: purchased Ambit Biosciences (KINOMEscan)
Source text: as §1

ABL1(Y253F) = target: T39, ABL1(Y253F) (Homo sapiens, UniProt P00519, Y253F); settings: compound concentration 10 uM, read-out: Percent Competition
T39 construct: purchased Ambit Biosciences (KINOMEscan)
Source text: as §1

MAP3K3 = target: T40, MAP3K3 (Homo sapiens, UniProt Q99759); settings: compound concentration 10 uM, read-out: Percent Competition
T40 construct: purchased Ambit Biosciences (KINOMEscan)
Source text: as §1

T24 sequence (P22607 23-806): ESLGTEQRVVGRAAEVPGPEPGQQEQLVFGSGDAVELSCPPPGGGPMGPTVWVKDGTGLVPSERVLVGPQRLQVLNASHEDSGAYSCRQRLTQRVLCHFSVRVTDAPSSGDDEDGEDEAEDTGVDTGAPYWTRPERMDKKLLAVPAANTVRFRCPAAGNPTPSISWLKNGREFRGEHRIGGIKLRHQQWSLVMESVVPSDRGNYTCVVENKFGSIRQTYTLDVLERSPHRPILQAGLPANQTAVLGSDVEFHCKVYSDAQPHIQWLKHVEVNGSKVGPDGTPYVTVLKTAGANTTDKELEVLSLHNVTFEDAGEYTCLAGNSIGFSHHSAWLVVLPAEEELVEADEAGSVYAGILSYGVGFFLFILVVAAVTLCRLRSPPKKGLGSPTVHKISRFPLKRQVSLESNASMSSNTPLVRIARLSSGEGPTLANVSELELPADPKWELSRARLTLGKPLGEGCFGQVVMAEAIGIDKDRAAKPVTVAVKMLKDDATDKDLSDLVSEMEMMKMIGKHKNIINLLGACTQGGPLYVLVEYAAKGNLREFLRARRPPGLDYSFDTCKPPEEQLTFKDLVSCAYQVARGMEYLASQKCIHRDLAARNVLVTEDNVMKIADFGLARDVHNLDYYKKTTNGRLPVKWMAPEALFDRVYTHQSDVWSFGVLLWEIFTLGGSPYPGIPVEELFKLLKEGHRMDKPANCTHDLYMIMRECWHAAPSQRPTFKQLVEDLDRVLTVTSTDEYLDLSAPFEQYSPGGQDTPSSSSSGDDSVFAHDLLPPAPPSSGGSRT
T10 sequence (Q15375 28-998): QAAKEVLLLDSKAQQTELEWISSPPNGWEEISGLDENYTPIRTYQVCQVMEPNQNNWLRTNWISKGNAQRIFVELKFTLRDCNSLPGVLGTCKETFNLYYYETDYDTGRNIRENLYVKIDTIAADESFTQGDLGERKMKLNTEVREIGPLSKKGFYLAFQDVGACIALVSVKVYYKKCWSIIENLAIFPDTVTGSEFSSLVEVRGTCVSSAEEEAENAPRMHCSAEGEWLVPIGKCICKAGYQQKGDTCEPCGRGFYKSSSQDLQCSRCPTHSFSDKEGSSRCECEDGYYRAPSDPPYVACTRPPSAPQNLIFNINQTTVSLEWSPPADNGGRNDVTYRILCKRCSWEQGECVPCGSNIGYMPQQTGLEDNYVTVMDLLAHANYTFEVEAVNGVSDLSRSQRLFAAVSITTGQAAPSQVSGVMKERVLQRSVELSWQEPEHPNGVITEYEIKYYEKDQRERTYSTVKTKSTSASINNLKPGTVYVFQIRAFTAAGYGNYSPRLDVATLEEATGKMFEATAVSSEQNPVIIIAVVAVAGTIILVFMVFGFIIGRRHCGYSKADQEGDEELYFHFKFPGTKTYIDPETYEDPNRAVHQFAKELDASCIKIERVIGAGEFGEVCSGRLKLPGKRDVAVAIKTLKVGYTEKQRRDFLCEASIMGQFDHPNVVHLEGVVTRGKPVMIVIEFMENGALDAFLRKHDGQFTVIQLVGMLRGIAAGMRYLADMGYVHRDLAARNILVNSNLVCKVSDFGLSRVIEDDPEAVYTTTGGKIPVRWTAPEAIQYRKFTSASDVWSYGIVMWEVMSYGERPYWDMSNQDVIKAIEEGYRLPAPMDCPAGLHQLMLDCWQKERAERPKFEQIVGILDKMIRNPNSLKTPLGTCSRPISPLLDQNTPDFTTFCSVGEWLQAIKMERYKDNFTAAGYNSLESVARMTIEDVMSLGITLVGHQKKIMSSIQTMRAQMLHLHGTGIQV
T25 sequence (Q13237 whole entry): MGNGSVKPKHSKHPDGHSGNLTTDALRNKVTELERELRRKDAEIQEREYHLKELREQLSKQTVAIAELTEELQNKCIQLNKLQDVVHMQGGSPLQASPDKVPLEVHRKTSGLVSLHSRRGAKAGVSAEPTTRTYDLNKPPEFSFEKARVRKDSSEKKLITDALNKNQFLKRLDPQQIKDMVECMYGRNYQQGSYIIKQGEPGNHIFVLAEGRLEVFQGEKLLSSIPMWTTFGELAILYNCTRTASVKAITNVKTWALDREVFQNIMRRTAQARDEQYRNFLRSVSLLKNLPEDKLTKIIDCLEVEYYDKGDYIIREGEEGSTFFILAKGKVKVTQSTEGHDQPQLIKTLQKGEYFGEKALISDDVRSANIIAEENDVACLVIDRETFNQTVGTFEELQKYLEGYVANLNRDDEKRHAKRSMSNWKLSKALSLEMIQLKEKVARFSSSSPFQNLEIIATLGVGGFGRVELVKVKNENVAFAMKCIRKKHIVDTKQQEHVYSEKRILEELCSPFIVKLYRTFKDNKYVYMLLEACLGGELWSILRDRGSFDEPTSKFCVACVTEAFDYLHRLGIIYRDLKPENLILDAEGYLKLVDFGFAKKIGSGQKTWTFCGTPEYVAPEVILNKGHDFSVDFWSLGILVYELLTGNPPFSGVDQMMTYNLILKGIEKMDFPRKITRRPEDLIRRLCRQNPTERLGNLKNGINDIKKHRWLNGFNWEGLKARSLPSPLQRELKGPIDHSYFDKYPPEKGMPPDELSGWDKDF
T30 sequence (P31751 whole entry): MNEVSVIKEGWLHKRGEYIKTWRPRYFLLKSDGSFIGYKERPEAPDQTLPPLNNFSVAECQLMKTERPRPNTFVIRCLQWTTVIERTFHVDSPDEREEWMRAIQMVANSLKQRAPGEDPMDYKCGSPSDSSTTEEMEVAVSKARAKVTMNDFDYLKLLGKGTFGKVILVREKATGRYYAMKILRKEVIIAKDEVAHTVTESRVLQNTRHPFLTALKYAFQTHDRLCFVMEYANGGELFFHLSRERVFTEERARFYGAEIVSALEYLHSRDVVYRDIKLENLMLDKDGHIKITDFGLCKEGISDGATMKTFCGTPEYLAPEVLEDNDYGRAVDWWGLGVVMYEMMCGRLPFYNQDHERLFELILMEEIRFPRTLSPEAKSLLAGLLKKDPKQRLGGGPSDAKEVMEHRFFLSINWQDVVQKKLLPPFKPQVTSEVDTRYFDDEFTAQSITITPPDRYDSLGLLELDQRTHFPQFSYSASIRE
T27 sequence (Q16513 whole entry): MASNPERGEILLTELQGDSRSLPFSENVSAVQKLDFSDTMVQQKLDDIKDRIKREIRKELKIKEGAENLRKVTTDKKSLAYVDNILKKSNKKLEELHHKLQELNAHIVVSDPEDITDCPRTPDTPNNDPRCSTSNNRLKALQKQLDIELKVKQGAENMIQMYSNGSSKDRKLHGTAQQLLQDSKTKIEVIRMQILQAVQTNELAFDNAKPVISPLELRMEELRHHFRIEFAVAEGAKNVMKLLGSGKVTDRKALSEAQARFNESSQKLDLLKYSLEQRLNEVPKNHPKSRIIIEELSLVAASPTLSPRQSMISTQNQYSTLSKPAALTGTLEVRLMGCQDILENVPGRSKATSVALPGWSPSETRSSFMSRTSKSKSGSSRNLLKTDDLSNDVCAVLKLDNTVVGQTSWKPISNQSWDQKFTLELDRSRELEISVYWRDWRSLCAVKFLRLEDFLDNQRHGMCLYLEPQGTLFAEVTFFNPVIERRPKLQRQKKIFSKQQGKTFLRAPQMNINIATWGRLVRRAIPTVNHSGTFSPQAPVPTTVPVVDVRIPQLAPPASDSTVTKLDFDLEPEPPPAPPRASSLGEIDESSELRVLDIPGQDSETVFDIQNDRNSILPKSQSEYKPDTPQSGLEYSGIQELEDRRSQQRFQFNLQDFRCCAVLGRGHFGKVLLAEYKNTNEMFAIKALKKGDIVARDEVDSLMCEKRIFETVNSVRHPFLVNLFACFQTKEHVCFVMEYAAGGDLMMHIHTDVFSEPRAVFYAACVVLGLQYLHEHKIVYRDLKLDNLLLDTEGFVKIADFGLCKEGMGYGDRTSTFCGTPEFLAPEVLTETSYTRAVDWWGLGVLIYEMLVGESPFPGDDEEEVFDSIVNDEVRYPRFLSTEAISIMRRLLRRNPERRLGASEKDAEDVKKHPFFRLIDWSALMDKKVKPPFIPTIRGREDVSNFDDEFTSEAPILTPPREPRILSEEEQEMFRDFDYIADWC
T36 sequence (O75582 388-802 limits assumed): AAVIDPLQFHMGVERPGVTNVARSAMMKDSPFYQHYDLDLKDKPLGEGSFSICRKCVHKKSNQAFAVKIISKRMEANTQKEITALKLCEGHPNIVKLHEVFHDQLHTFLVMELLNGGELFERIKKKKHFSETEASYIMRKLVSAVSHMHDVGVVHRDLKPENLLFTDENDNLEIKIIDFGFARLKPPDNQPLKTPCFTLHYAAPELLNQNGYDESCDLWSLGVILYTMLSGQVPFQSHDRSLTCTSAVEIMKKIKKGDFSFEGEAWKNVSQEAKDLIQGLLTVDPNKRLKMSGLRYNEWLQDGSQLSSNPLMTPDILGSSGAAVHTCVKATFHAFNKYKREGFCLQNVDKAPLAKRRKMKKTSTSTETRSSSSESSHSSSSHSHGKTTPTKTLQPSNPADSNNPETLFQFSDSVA
T11 sequence (O75676 1-371 limits assumed): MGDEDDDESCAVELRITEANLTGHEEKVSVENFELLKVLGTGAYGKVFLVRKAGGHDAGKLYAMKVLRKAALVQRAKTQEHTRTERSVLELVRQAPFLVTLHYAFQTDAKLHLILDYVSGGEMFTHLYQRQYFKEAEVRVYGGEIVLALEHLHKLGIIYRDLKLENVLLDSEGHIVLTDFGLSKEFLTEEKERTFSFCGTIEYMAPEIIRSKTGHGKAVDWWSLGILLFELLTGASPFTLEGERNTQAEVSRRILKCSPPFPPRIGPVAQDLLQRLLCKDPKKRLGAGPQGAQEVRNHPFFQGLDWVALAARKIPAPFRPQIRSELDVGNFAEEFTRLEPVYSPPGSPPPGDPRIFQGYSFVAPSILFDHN

SMILES: Fc1ccc(-c2c(-c3ccncc3)[nH]c3nccnc23)cc1 [RO1155697-000-005]
- inhibition at 10 µM (PRKX): < 50%
- inhibition at 10 µM (CAMKK1): < 50%
- inhibition at 10 µM (BMX): < 50%
- inhibition at 10 µM (ABL1(H396P)): < 50%
- inhibition at 10 µM (EPHA4): < 50%
- inhibition at 10 µM (PIM3): < 50%
- inhibition at 10 µM (LKB1): < 50%
- inhibition at 10 µM (AMPK-alpha1): < 50%
- inhibition at 10 µM (GCN2(Kin.Dom.2,S808G)): < 50%
- inhibition at 10 µM (EPHA7): < 50%
- inhibition at 10 µM [1]: < 50%
- inhibition at 10 µM (SIK2): < 50%
- Percent Competition (MARK4): <50%
- inhibition at 10 µM (AAK1): < 50%
- inhibition at 10 µM (TRKB): < 50%
- inhibition at 10 µM (MELK): < 50%
- Percent Competition (ULK1): <50%
- inhibition at 10 µM (TYRO3): < 50%
- inhibition at 10 µM (TRKC): < 50%
- inhibition at 10 µM (TIE2): < 50%
- Percent Competition (MST1): <50%
- inhibition at 10 µM (INSRR): < 50%
- inhibition at 10 µM (FLT3(K663Q)): < 50%
- inhibition at 10 µM (FGFR3): < 50%
- inhibition at 10 µM (PRKG2): < 50%
- inhibition at 10 µM (WEE2): < 50%
- inhibition at 10 µM (PKN2): < 50%
- inhibition at 10 µM (MAP3K4): < 50%
- inhibition at 10 µM (RIOK2): < 50%
- inhibition at 10 µM (AKT2): < 50%
- inhibition at 10 µM (FER): < 50%
- inhibition at 10 µM (HIPK1): < 50%
- inhibition at 10 µM (MLK1): < 50%
- inhibition at 10 µM (NDR2): < 50%
- inhibition at 10 µM (MAPKAPK2): < 50%
- inhibition at 10 µM [2]: < 50%
- inhibition at 10 µM (TAK1): < 50%
- inhibition at 10 µM (LYN): < 50%
- inhibition at 10 µM (ABL1(Y253F)): < 50%
- inhibition at 10 µM (MAP3K3): < 50%

— paper PMC3445516 (PLoS ONE, 2012)
